Test results published in US6916820B1, “Neurotrophic substituted pyrimidines” (Krenitsky Pharmaceuticals, Inc., priority 1999, dated 2005).

Key:
[1] = test system: choline acetyltransferase (ChAT) activity in PC12 cells; assay: Choline acetyltransferase (ChAT) assay in NGF-treated PC12 cells (screen for NGF-like activity); assay type: cell-based, rat; conditions: 3 days incubation with test compound, compared with NGF alone
Method: Cultured PC12 cells (rat adrenal pheochromocytoma from ATCC) have receptors for NGF. Responses include promotion of neurite outgrowth and elevation of choline acetyltransferase (ChAT) (L. A. Green and A. S. Tischler, Cell Neurobiol., 3, 373 (1982)).
The following assay is modified from that described in H L White and P W Scates, Neurochem. Res., 16, 63 (1991). PC12 cells were cultured at 37° C. in RPMI supplemented with HEPES buffer, pH 7.5 (to 10 mM), fetal bovine serum, horse serum, glutamine, penicillin, streptomycin and non-essential amino acids. Cultures were split 1:3 every 3 to 4 days. Exponentially dividing cells were plated into fresh medium on collagen-coated 12-well plastic dishes (10^5 cells/well). After allowing one day for cell attachment, the medium was replaced with low serum medium, with or without test compounds with each condition in triplicate. The medium may contain up to 0.2% ethanol, which was used as a solvent for most compounds tested. Cells were examined for morphological changes using an Olympus IMT-2 inverted research microscope. After 3 days incubation with test compounds, medium was removed and replaced with 0.2 ml of lysis and ChAT assay mixture. The plates were incubated at 37° C. for 2 hours and then placed into a freezer at −20° C. […]
The assay mixture contained 100 mM phosphate, pH 7.4, 0.1% NP-40, 150 mM NaCl, 1.5 mM choline, 10 mM EDTA, 0.1 mM eserine, 0.1 mM acetyl-coenzyme A and about 0.5 uCi (40-70 Ci/mol) [14C]acetyl-coenzyme A in each ml of mixture. […] The vials were centrifuged at 3000 rpm (max.=16 cm) for 15 minutes and then counted in a Beckman LS6500 scintillation counter. […]
The following data were obtained for representative compounds of the present invention which (1) increased the activity of choline acetyltransferase ChAT), (2) enhanced NGF-stimulated neurite outgrowth and/or (3) potentiated or appeared additive with the action of NGF itself. The concentration at which the test compound doubled the ChAT activity over the activity with NGF alone (no test compound) was recorded as the EC2x value: […]

melting point	Structure (SMILES)	EC2x (concentration at which the test compound doubled the ChAT activity over the activity with NGF alone) [1]
155 to 156 °C	Cl.Nc1ncc(Oc2ccc(Cl)cc2)c(N[C@H]2CC[C@H](O)CC2)n1	–
154 to 155 °C	Nc1ncc(Oc2ccc(Cl)cc2)c(N[C@H]2CC[C@H](O)CC2)n1 [Example 3, 2-amino-5-(4-chlorophenoxy)-4-(trans-4-hydroxycyclohexylamino)pyrimidine]	0.4 µM
138 to 145 °C	Cl.Nc1ncc(Oc2ccc(Cl)cc2Cl)c(N[C@H]2CC[C@H](O)CC2)n1 [Example 5, 2-amino-5-(2,4-dichlorophenoxy)-4-(trans-4-hydroxycyclohexylamino)pyrimidine hydrochloride]	1.2 µM
–	Cl.Nc1ncc(Oc2ccc(Cl)cc2)c(NC2CCC(=O)CC2)n1 [Example 10, 2-amino-5-(4-chlorophenoxy)-4-(4-oxocyclohexylamino)pyrimidine hydrochloride]	0.7 µM
